Results as given in US12097215B2, “Antibacterial composition and its use in treating bacterial infections” (Vector Vitale IP LLC, priority 2017, dated 2024).
≈ marks a conversion by molar mass, not a printed value. Read-outs that look alike come from different tables or passages of the source. Marks after values point to notes of the source that are not given here.

Key:
[1] = test system: E. coli ATCC 25922; assay: MIC by serial dilutions in broth (visible growth); type: cell-based; conditions: for MIC: concentration of ^64Zne, Tables 1-5;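 as to all read-outs here: broth tubes inoculated to about 5×10^5 CFU/ml, incubated at 35 °C for 16-24 h, growth judged by transmitted light versus an untreated inoculum reference tube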
Method: (§3) The minimum inhibitory concentration (MIC) and minimum bactericidal concentration (MBC) of the antibacterial composition enriched for the light isotope zinc ^64Zne was evaluated in the experiment. […] S. aureus ATCC 25923, E. coli ATCC 25922 and P. aeruginosa ATCC 27853 were used as test cultures.
(§4) The studies were carried out using the method of serial dilutions in broth. To determine sensitivity of microorganisms to the antibacterial composition, 0.5 ml of broth was placed into each tube. The number of tubes was determined based on the desired number of dilutions and was increased by one for the “negative” control (no test composition). Series of two-fold serial dilutions of the test variants of the antibacterial composition were used and concentrations ranging from 450 mcg ^64Zne/ml to 0.000107 mcg ^64Zne/ml were obtained.
(§5) Reference test strains of S. aureus ATCC 25923, E. coli ATCC 25922 and P. aeruginosa ATCC 27853 were incubated in Mueller-Hinton liquid broth at 37° C. for 24 hours. Standard bacterial suspension equivalent to 0.5 McFarland standard diluted 100-fold with the broth was used for the inoculation of the tubes after which the concentration of microorganism in it was approximately 10^6 CFU/ml.
(§6) 0.5 ml of inoculum was added to each tube containing 0.5 ml of the appropriate dilution of a solution of the ^64Zn-enriched salt of interest. […] The final concentration of the microorganism in each tube was approximately 5×10^5 CFU/ml.
(§7) The tubes were incubated at 35° C. in air for 16-20 or 20-24 hours (depending on the bacterial strain).
(§8) To determine the presence of microorganism growth the test tubes with inoculum were viewed under transmitted light. Transmitted light was measured by spectrophotometry. The growth of culture in the presence of antibacterial compositions based on ^64Zne was compared with the reference test tube (“negative” control), containing the original inoculum and stored in the refrigerator. The MIC was determined as the lowest concentration of ^64Zne that inhibits visible growth of the microorganism. Both gram-positive (S. aureus) and gram-negative bacteria (P. aeruginosa, E. coli) were used in the experiments described below.
(§9) That is, ^64Zne in the form of a salt was compared with a composition that contains zinc with a natural distribution of isotopes. […] Relevant samples containing salt of natural zinc with EDDA and natural zinc sulfate were used for the comparison.
(§10) The following commercial antibacterial medications were used for the study: azithromycin and ceftriaxone and norfloxacin. The initial concentration of 3000 mcg/ml was used for the samples of all the above compounds. […] Serial dilutions of the above antibacterial compounds were also prepared in the same way as for the antibacterial composition of the invention. The same pathogenic strains of S. aureus ATCC 25923, E. coli ATCC 25922, P. aeruginosa ATCC 27853 were used for the study.

[2] = test system: P. aeruginosa ATCC 27853; assay: MIC by serial dilutions in broth (visible growth)
Method: as §3, §4, §5, §6, §7, §8, §9, §10

[3] = test system: S. aureus ATCC 25923; assay: MIC by serial dilutions in broth (visible growth); type: cell-based; conditions: for MIC: concentration of ^64Zne, Tables 1-5;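 as to all read-outs here: broth tubes inoculated at about 5×10^5 CFU/ml, incubated 16-24 h at 35 °C in air, growth judged by transmitted light against an unexposed refrigerated inoculum tube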
Method: as §3, §4, §5, §6, §7, §8, §9, §10

[4] = test system: E. coli ATCC 25922; assay: MBC by plating tube contents on Mueller-Hinton medium; type: cell-based; conditions: Table 6
Method: (§1) To evaluate the bactericidal action of the antibacterial composition based on light isotope ^64Zne the minimum bactericidal concentration (MBC) was determined by plating out 0.1 ml of the contents of each tube containing the antibacterial composition on Mueller-Hinton medium. The incubation was at 37° C. for 24 h.
(§2) The MBC of the test samples was determined as the lowest concentration at which there was no growth on Mueller-Hinton agar medium.

[5] = test system: S. aureus ATCC 25923; assay: as above; type: cell-based; conditions: Table 6
Method: as §1, §2

[6] = test system: P. aeruginosa ATCC 27853; assay: as above; type: cell-based; conditions: for MBC: Table 6
Method: as §1, §2

[7] = concentration of ^64Zne, Tables 1-5

In the case of `NC(CC(=O)O)C(=O)O` (stereo not drawn) [^64Zne aspartate], the MIC ([1]; Escherichia coli, ATCC25922, read-out: MIC) is reported as 0.0229 µg/mL (≈ 0.172 µM), the visible growth ([1]; ^64Zne 0.00018 mcg/ml) is reported as “+” and the visible growth ([1]; ^64Zne 0.00036 mcg/ml) is reported as “+”. The visible growth ([1]; ^64Zne 0.00072 mcg/ml) was “+”, the visible growth ([1]; ^64Zne 0.0014 mcg/ml) was “+” and the visible growth ([1]; ^64Zne 0.0029 mcg/ml) was “+”. The visible growth ([1]; ^64Zne 0.0057 mcg/ml) was “+”, the visible growth ([1]; ^64Zne 0.011 mcg/ml) was “+” and the visible growth ([1]; ^64Zne 0.023 mcg/ml) was “−”. The visible growth ([1]; ^64Zne 0.046 mcg/ml) was “−”, the visible growth ([1]; ^64Zne 0.092 mcg/ml) was “−” and the visible growth ([1]; ^64Zne 0.18 mcg/ml) was “−”. For the same compound, the visible growth ([1]; ^64Zne 0.37 mcg/ml) was “−”, the visible growth ([1]; ^64Zne 0.73 mcg/ml) was “−” and the visible growth ([1]; ^64Zne 1.46 mcg/ml) was “−”. For the same compound, the visible growth ([1]; ^64Zne 2.93 mcg/ml) was “−”, the visible growth ([1]; ^64Zne 5.86 mcg/ml) was “−” and the visible growth ([1]; ^64Zne 11.72 mcg/ml) was “−”. The visible growth ([1]; ^64Zne 23.44 mcg/ml) was “−”, the visible growth ([1]; ^64Zne 46.88 mcg/ml) was “−” and the visible growth ([1]; ^64Zne 93.75 mcg/ml) was “−”. The visible growth ([1]; ^64Zne 187.5 mcg/ml) was “−”, the visible growth ([1]; ^64Zne 375 mcg/ml) was “−” and the visible growth ([1]; ^64Zne 750 mcg/ml) was “−”. The “bacteriostatic activity (in words)” value [2] was “best results”, the MIC ([2]; Pseudomonas aeruginosa, ATCC27853) was 0.732 µg/mL (≈ 5.5 µM) and the MIC ([3]; Staphylococcus aureus, ATCC25923, read-out: MIC) was 0.0057 µg/mL (≈ 0.0428 µM). For the same compound, the visible growth ([3]; ^64Zne 0.00018 mcg/ml) was “+”, the visible growth ([3]; ^64Zne 0.00036 mcg/ml) was “+” and the visible growth ([3]; ^64Zne 0.00072 mcg/ml) was “+”. The visible growth ([3]; ^64Zne 0.0014 mcg/ml) was “+”, the visible growth ([3]; ^64Zne 0.0029 mcg/ml) was “+” and the visible growth ([3]; ^64Zne 0.0057 mcg/ml) was “−”. For the same compound, the visible growth ([3]; ^64Zne 0.011 mcg/ml) was “−”, the visible growth ([3]; ^64Zne 0.023 mcg/ml) was “−” and the visible growth ([3]; ^64Zne 0.046 mcg/ml) was “−”. For the same compound, the visible growth ([3]; ^64Zne 0.092 mcg/ml) was “−”, the visible growth ([3]; ^64Zne 0.18 mcg/ml) was “−” and the visible growth ([3]; ^64Zne 0.37 mcg/ml) was “−”. The visible growth ([3]; ^64Zne 0.73 mcg/ml) was “−”, the visible growth ([3]; ^64Zne 1.46 mcg/ml) was “−” and the visible growth ([3]; ^64Zne 2.93 mcg/ml) was “−”. The visible growth ([3]; ^64Zne 5.86 mcg/ml) was “−”, the visible growth ([3]; ^64Zne 11.72 mcg/ml) was “−” and the visible growth ([3]; ^64Zne 23.44 mcg/ml) was “−”. For the same compound, the visible growth ([3]; ^64Zne 46.88 mcg/ml) was “−”, the visible growth ([3]; ^64Zne 93.75 mcg/ml) was “−” and the visible growth ([3]; ^64Zne 187.5 mcg/ml) was “−”. For the same compound, the visible growth ([3]; ^64Zne 375 mcg/ml) was “−”.

`O=C([O-])CC(O)(CC(=O)[O-])C(=O)[O-].O=C([O-])CC(O)(CC(=O)[O-])C(=O)[O-].[Zn+2].[Zn+2].[Zn+2]` [^64Zne citrate] was tested, and the MBC [4] was 0.44* mcg ^64Zne/ml, the MBC [5] was 0.028* mcg ^64Zne/ml and the “bactericidal activity (in words)” value [6] was “satisfactory bactericidal activity”. The MBC [6] was 112.5 mcg ^64Zne/ml, the visible growth ([1]; ^64Zne 0.00011 mcg/ml) was “+” and the visible growth ([1]; ^64Zne 0.00022 mcg/ml) was “+”. The visible growth ([1]; ^64Zne 0.00043 mcg/ml) was “+”, the visible growth ([1]; ^64Zne 0.00086 mcg/ml) was “+” and the visible growth ([1]; ^64Zne 0.0017 mcg/ml) was “+”. The visible growth ([1]; ^64Zne 0.0034 mcg/ml) was “+”, the visible growth ([1]; ^64Zne 0.0069 mcg/ml) was “+” and the visible growth ([1]; ^64Zne 0.014 mcg/ml) was “+”. The visible growth ([1]; ^64Zne 0.027 mcg/ml) was “−”, the visible growth ([1]; ^64Zne 0.055 mcg/ml) was “−” and the visible growth ([1]; ^64Zne 0.11 mcg/ml) was “−”. For the same compound, the visible growth ([1]; ^64Zne 0.22 mcg/ml) was “−”, the visible growth ([1]; ^64Zne 0.44 mcg/ml) was “−” and the visible growth ([1]; ^64Zne 0.88 mcg/ml) was “−”. The visible growth ([1]; ^64Zne 1.76 mcg/ml) was “−”, the visible growth ([1]; ^64Zne 3.52 mcg/ml) was “−” and the visible growth ([1]; ^64Zne 7.03 mcg/ml) was “−”. For the same compound, the visible growth ([1]; ^64Zne 14.06 mcg/ml) was “−”, the visible growth ([1]; ^64Zne 28.13 mcg/ml) was “−” and the visible growth ([1]; ^64Zne 56.25 mcg/ml) was “−”. The visible growth ([1]; ^64Zne 112.5 mcg/ml) was “−”, the visible growth ([1]; ^64Zne 225 mcg/ml) was “−” and the visible growth ([1]; ^64Zne 450 mcg/ml) was “−”. For the same compound, the MIC [1] was 0.0275 µg/mL, the MIC [2, 7] was 14.062 µg/mL and the visible growth ([3]; ^64Zne 0.00011 mcg/ml) was “+”. The visible growth ([3]; ^64Zne 0.00022 mcg/ml) was “+”, the visible growth ([3]; ^64Zne 0.00043 mcg/ml) was “+” and the visible growth ([3]; ^64Zne 0.00086 mcg/ml) was “+”. For the same compound, the visible growth ([3]; ^64Zne 0.0017 mcg/ml) was “+”, the visible growth ([3]; ^64Zne 0.0034 mcg/ml) was “+” and the visible growth ([3]; ^64Zne 0.0069 mcg/ml) was “+”. The visible growth ([3]; ^64Zne 0.014 mcg/ml) was “+”, the visible growth ([3]; ^64Zne 0.027 mcg/ml) was “−” and the visible growth ([3]; ^64Zne 0.055 mcg/ml) was “−”. For the same compound, the visible growth ([3]; ^64Zne 0.11 mcg/ml) was “−”, the visible growth ([3]; ^64Zne 0.22 mcg/ml) was “−” and the visible growth ([3]; ^64Zne 0.44 mcg/ml) was “−”. For the same compound, the visible growth ([3]; ^64Zne 0.88 mcg/ml) was “−”, the visible growth ([3]; ^64Zne 1.76 mcg/ml) was “−” and the visible growth ([3]; ^64Zne 3.52 mcg/ml) was “−”. For the same compound, the visible growth ([3]; ^64Zne 7.03 mcg/ml) was “−”, the visible growth ([3]; ^64Zne 14.06 mcg/ml) was “−” and the visible growth ([3]; ^64Zne 28.13 mcg/ml) was “−”. For the same compound, the visible growth ([3]; ^64Zne 56.25 mcg/ml) was “−”, the visible growth ([3]; ^64Zne 112.5 mcg/ml) was “−” and the visible growth ([3]; ^64Zne 225 mcg/ml) was “−”. The MIC [3] was 0.0275 µg/mL.

In the case of `NC(CCC(=O)[O-])C(=O)[O-].[64Zn+2]` (stereo not drawn) [^64Zne glutamate], the MBC [4] is reported as 0.37* mcg ^64Zne/ml, the MBC [5] is reported as 0.046* mcg ^64Zne/ml and the MBC [6] is reported as >750 mcg ^64Zne/ml. The visible growth ([1]; ^64Zne 0.00018 mcg/ml) was “+”, the visible growth ([1]; ^64Zne 0.00036 mcg/ml) was “+” and the visible growth ([1]; ^64Zne 0.00072 mcg/ml) was “+”. The visible growth ([1]; ^64Zne 0.0014 mcg/ml) was “+”, the visible growth ([1]; ^64Zne 0.0029 mcg/ml) was “+” and the visible growth ([1]; ^64Zne 0.0057 mcg/ml) was “−”. The visible growth ([1]; ^64Zne 0.011 mcg/ml) was “−”, the visible growth ([1]; ^64Zne 0.023 mcg/ml) was “−” and the visible growth ([1]; ^64Zne 0.046 mcg/ml) was “−”. The visible growth ([1]; ^64Zne 0.092 mcg/ml) was “−”, the visible growth ([1]; ^64Zne 0.18 mcg/ml) was “−” and the visible growth ([1]; ^64Zne 0.37 mcg/ml) was “−”. For the same compound, the visible growth ([1]; ^64Zne 0.73 mcg/ml) was “−”, the visible growth ([1]; ^64Zne 1.46 mcg/ml) was “−” and the visible growth ([1]; ^64Zne 2.93 mcg/ml) was “−”. For the same compound, the visible growth ([1]; ^64Zne 5.86 mcg/ml) was “−”, the visible growth ([1]; ^64Zne 11.72 mcg/ml) was “−” and the visible growth ([1]; ^64Zne 23.44 mcg/ml) was “−”. For the same compound, the visible growth ([1]; ^64Zne 46.88 mcg/ml) was “−”, the visible growth ([1]; ^64Zne 93.75 mcg/ml) was “−” and the visible growth ([1]; ^64Zne 187.5 mcg/ml) was “−”. The visible growth ([1]; ^64Zne 375 mcg/ml) was “−”, the visible growth ([1]; ^64Zne 750 mcg/ml) was “−” and the MIC [1] was 0.0057 µg/mL. For the same compound, the “bacteriostatic activity (in words)” value [2] was “best results”, the MIC [2, 7] was 0.183 µg/mL and the visible growth ([3]; ^64Zne 0.00018 mcg/ml) was “+”. The visible growth ([3]; ^64Zne 0.00036 mcg/ml) was “+”, the visible growth ([3]; ^64Zne 0.00072 mcg/ml) was “+” and the visible growth ([3]; ^64Zne 0.0014 mcg/ml) was “+”. The visible growth ([3]; ^64Zne 0.0029 mcg/ml) was “+”, the visible growth ([3]; ^64Zne 0.0057 mcg/ml) was “+” and the visible growth ([3]; ^64Zne 0.011 mcg/ml) was “+”. The visible growth ([3]; ^64Zne 0.023 mcg/ml) was “+”, the visible growth ([3]; ^64Zne 0.046 mcg/ml) was “−” and the visible growth ([3]; ^64Zne 0.092 mcg/ml) was “−”. The visible growth ([3]; ^64Zne 0.18 mcg/ml) was “−”, the visible growth ([3]; ^64Zne 0.37 mcg/ml) was “−” and the visible growth ([3]; ^64Zne 0.73 mcg/ml) was “−”. For the same compound, the visible growth ([3]; ^64Zne 1.46 mcg/ml) was “−”, the visible growth ([3]; ^64Zne 2.93 mcg/ml) was “−” and the visible growth ([3]; ^64Zne 5.86 mcg/ml) was “−”. The visible growth ([3]; ^64Zne 11.72 mcg/ml) was “−”, the visible growth ([3]; ^64Zne 23.44 mcg/ml) was “−” and the visible growth ([3]; ^64Zne 46.88 mcg/ml) was “−”. The visible growth ([3]; ^64Zne 93.75 mcg/ml) was “−”, the visible growth ([3]; ^64Zne 187.5 mcg/ml) was “−” and the visible growth ([3]; ^64Zne 375 mcg/ml) was “−”. For the same compound, the MIC [3] was 0.0458 µg/mL.
